Publication PMC7413254 (Nature Communications, 2020)
Read-outs that look alike come from different tables or passages of the source.

What was measured:
PfCRT^Dd2 = assay: cell-based; assay type: cell-based, Plasmodium falciparum; details: for PfCRT-mediated [3H]CQ transport, trans-stimulation (% PfCRTDd2 control): PfCRTDd2 oocytes, normalised to oocyte type control; for [3H]CQ transport (% PfCRTDd2 control), trans-stimulation, PfCRTDd2: PfCRT-mediated component (background subtracted), mean ± SEM, SEM
Summary of the method: (§1)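 Transport measured in Xenopus oocytes expressing the transporters, 1.5 h at 27.5 °C in ND96 pH 5.5 unless noted. For trans-stimulation, VF-6 injected in 25 nL ND96 at pH 5.0–7.0 or Na^+-free (choline) buffer; intracellular levels based on ~400 nL oocyte volume. Ten oocytes per treatment, ≥4 experiments.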

PfCRT^Ecu1110 = assay: cell-based; assay type: cell-based, Plasmodium falciparum; details: for PfCRT-mediated [3H]CQ transport, trans-stimulation (% PfCRTEcu1110 control): PfCRTEcu1110 oocytes, normalised to oocyte type control; for [3H]CQ transport (% PfCRTDd2 control), trans-stimulation, PfCRTEcu1110: PfCRT-mediated component (background subtracted), sheet title says normalised to PfCRTDd2 control, mean ± SEM, SEM
Summary of the method: as §1

[1] = biological target: T1, PfCRT^Dd2 in C4^Dd2 parasites (Plasmodium falciparum, UniProt Q8IBZ9, A220S/I356T/K76T/M74I/N326S/N75E/Q271E/R371I); assay: P. falciparum H+-efflux assay (rate of DV alkalinisation after concanamycin A); assay type: cell-based; details: C4Dd2; for Effect on rate of DV alkalinisation / H+ leak (in words): test solute 10 μM
T1 construct: PfCRT also functions as a peptide transporter within its native environment of the DV membrane; expressed in transfected cells; host or cells: P. falciparum pfcrt transfectant line C4^Dd2 (saponin-isolated trophozoites)
T1 sequence (Q8IBZ9 1-424 M74I/N75E/K76T/A220S/Q271E/N326S/I356T/R371I): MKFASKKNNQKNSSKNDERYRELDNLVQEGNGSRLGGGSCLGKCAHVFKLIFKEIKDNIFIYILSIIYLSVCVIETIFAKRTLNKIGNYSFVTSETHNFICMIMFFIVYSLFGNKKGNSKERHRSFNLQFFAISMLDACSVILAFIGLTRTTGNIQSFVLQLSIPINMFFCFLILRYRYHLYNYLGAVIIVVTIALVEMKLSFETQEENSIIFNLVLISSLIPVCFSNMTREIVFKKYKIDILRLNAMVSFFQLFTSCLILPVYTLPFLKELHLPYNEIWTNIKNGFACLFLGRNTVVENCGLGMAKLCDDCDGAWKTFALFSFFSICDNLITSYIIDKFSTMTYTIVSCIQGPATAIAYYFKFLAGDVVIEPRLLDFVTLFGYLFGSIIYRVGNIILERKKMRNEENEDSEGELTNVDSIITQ

C2^GC03 parasites = assay: P. falciparum proliferation assay; assay type: cell-based; details: Plasmodium falciparum
Procedure: (§2) Parasite proliferation was measured in 96-well plates using a fluorescent DNA-intercalating dye[68],[69]. Synchronous ring-stage parasite cultures (~1% haematocrit and 1% parasitaemia) were incubated with different concentrations of the test compound for 72 h at 37 °C and under reduced O2 conditions. The assay was terminated by freezing and thawing the samples, after which 100 μL of SYBR Safe DNA Gel Stain (Molecular Probes; 0.2 μL/mL) in a lysis buffer (20 mM Tris-HCl, 5 mM EDTA, 0.008% (w/v) saponin and 0.08% (v/v) Triton X-100; pH 7.5) was added to each well. The fluorescence from each well was measured using a Tecan Infinite M1000 PRO microplate reader (excitation wavelength 490 nm; emission wavelength 520 nm). The fluorescence values for the wells containing the highest concentration of the compound were averaged and this value was then subtracted from each of the well values obtained for that 96-well plate. The level of parasite proliferation in the presence of each compound concentration was expressed as a percentage of the proliferation measured in the absence of the compound. The IC50s were determined in SigmaPlot Windows Version 11.0 by a least-squares fit of the equation y = a/[1 + ([compound]/IC50)^c] to the data, where y is the percent parasite proliferation, a is the maximum change in the percent parasite proliferation, and c is a fitted constant. In all cases, five independent experiments were performed (on different days), and within each experiment measurements were averaged from three replicates.

3D7 strain = assay: P. falciparum proliferation assay; assay type: cell-based, Plasmodium falciparum
Procedure: as §2

7G8 strain = assay: P. falciparum proliferation assay; assay type: cell-based, Plasmodium falciparum
Procedure: as §2

C4^Dd2 parasites = assay: P. falciparum proliferation assay; assay type: cell-based, Plasmodium falciparum
Procedure: as §2

C6^7G8 parasites = assay: P. falciparum proliferation assay; assay type: cell-based, Plasmodium falciparum
Procedure: as §2

Dd2 strain = assay: P. falciparum proliferation assay; assay type: cell-based, Plasmodium falciparum
Procedure: as §2

[2] = [test solute]i = 5 mM (intracellular)
[3] = [test solute]i = 45 mM (intracellular; 30 mM for some solutes due to solubility)
[4] = [test solute]i = 5 mM (injected)
[5] = [test solute]i = 45 mM (30 mM for some solutes due to solubility)

For `CSCC[C@H](N)C(=O)O` [L-methionine], the “PfCRT-mediated [3H]CQ transport, trans-stimulation (% PfCRTDd2 control)” value (“PfCRT-mediated … (% PfCRTDd2 control)” below) (PfCRT^Dd2; [2]) was 98 ± 4.1 % PfCRTDd2 control, the “PfCRT-mediated … (% PfCRTDd2 control)” value (PfCRT^Dd2; [3]) was 97 ± 3.5 % PfCRTDd2 control and the “[3H]CQ transport (% PfCRTDd2 control), trans-stimulation, PfCRTDd2” value (PfCRT^Dd2; [4]) was 98 ± 4.1 % PfCRTDd2 control. The “[3H]CQ transport (% PfCRTDd2 control), trans-stimulation, PfCRTDd2” value (PfCRT^Dd2; [5]) was 97 ± 3.5 % PfCRTDd2 control, the “PfCRT-mediated [3H]CQ transport, trans-stimulation (% PfCRTEcu1110 control)” value (from here on “PfCRT-mediated … (% PfCRTEcu1110 control)”) (PfCRT^Ecu1110; [2]) was 96 ± 1.4 % PfCRTEcu1110 control and the “PfCRT-mediated … (% PfCRTEcu1110 control)” value (PfCRT^Ecu1110; [3]) was 98 ± 4.6 % PfCRTEcu1110 control. For the same compound, the “[3H]CQ transport (% PfCRTDd2 control), trans-stimulation, PfCRTEcu1110” value (PfCRT^Ecu1110; [4]) was 32 ± 1.1 % PfCRTEcu1110 control and the “[3H]CQ transport (% PfCRTDd2 control), trans-stimulation, PfCRTEcu1110” value (PfCRT^Ecu1110; [5]) was 33 ± 1.3 % PfCRTEcu1110 control.
In the case of `CC(C)(C)NC(=O)[C@@H]1C[C@@H]2CCCC[C@@H]2CN1C[C@@H](O)[C@H](Cc1ccccc1)NC(=O)[C@H](CC(N)=O)NC(=O)c1ccc2ccccc2n1` [Saquinavir, saquinavir, reference compound], the “Maximum rate of peptide mimic-induced DV alkalinization” value ([1]; mean ± SEM, n = 5, SEM) is reported as 0.011 ±0.003 fluorescence ratio/s, the “Effect on rate of DV alkalinisation / H+ leak (in words)” value [1] is reported as “increased the rate of DV alkalinisation” and the IC50 (C2^GC03 parasites; 72 h, read-out: IC50 (μM), parasite proliferation, + 1 μM VP, SEM) is reported as 5.1 ± 0.2 µM. For the same compound, the IC50 (C2^GC03 parasites; C2GC03, 72 h, 37 °C, SYBR Safe, mean ± SEM, n = 5, read-out: IC50 (μM), parasite proliferation, Control) was 6.8 ± 0.4 µM, the IC50 (3D7 strain; Plasmodium falciparum, 3D7, 72 h, 37 °C, SYBR Safe, mean ± SEM, n = 5, read-out: IC50 (μM), parasite proliferation, Control) was 7.4 ± 0.3 µM and the IC50 (3D7 strain; read-out: IC50 (μM), parasite proliferation, + 1 μM VP, SEM) was 5.9 ± 0.6 µM. It also gave an IC50 (7G8 strain; Plasmodium falciparum, 72 h, read-out: IC50 (μM), parasite proliferation, Control, SEM) of 4.7 ± 0.1 µM, an IC50 (7G8 strain; read-out: IC50 (μM), parasite proliferation, + 1 μM VP, 7G8, + 1 μM verapamil, 72 h, mean ± SEM, n = 5) of 2.2 ± 0.1 µM and an IC50 (C4^Dd2 parasites; Plasmodium falciparum, DD2, C4Dd2, 72 h, 37 °C, SYBR Safe, mean ± SEM, n = 5, read-out: IC50 (μM), parasite proliferation, Control) of 3.5 ± 0.5 µM. For the same compound, the IC50 (C4^Dd2 parasites; read-out: IC50 (μM), parasite proliferation, + 1 μM VP, C4Dd2, + 1 μM verapamil, 72 h, mean ± SEM, n = 5) was 1.9 ± 0.1 µM, the IC50 (C6^7G8 parasites; Plasmodium falciparum, C67G8, 72 h, 37 °C, SYBR Safe, mean ± SEM, n = 5, read-out: IC50 (μM), parasite proliferation, Control) was 4.2 ± 0.4 µM and the IC50 (C6^7G8 parasites; read-out: IC50 (μM), parasite proliferation, + 1 μM VP, C67G8, + 1 μM verapamil, 72 h, mean ± SEM, n = 5) was 2.3 ± 0.3 µM. It also gave an IC50 (Dd2 strain; Plasmodium falciparum, DD2, 72 h, read-out: IC50 (μM), parasite proliferation, Control, SEM) of 3.3 ± 0.2 µM and an IC50 (Dd2 strain; read-out: IC50 (μM), parasite proliferation, + 1 μM VP, Dd2, + 1 μM verapamil, 72 h, mean ± SEM, n = 5) of 2.1 ± 0.3 µM.
With `N[C@@H](Cc1c[nH]cn1)C(=O)O` [L-histidine] the “PfCRT-mediated … (% PfCRTDd2 control)” value (PfCRT^Dd2; [2]) was 99 ± 3.9 % PfCRTDd2 control, the “PfCRT-mediated … (% PfCRTDd2 control)” value (PfCRT^Dd2; [3]) was 95 ± 2.5 % PfCRTDd2 control and the “[3H]CQ transport (% PfCRTDd2 control), trans-stimulation, PfCRTDd2” value (PfCRT^Dd2; [4]) was 99 ± 3.9 % PfCRTDd2 control. For the same compound, the “[3H]CQ transport (% PfCRTDd2 control), trans-stimulation, PfCRTDd2” value (PfCRT^Dd2; [5]) was 95 ± 2.5 % PfCRTDd2 control, the “PfCRT-mediated … (% PfCRTEcu1110 control)” value (PfCRT^Ecu1110; [2]) was 98 ± 2.8 % PfCRTEcu1110 control and the “PfCRT-mediated … (% PfCRTEcu1110 control)” value (PfCRT^Ecu1110; [3]) was 97 ± 4.1 % PfCRTEcu1110 control. For the same compound, the “[3H]CQ transport (% PfCRTDd2 control), trans-stimulation, PfCRTEcu1110” value (PfCRT^Ecu1110; [4]) was 33 ± 2.2 % PfCRTEcu1110 control, the “[3H]CQ transport (% PfCRTDd2 control), trans-stimulation, PfCRTEcu1110” value (PfCRT^Ecu1110; [5]) was 32 ± 1.6 % PfCRTEcu1110 control and the “Effect on rate of DV alkalinisation / H+ leak (in words)” value [1] was “without effect”.
